Sander's compilation of Henry's law constants (doi:10.1002/etc.5620090606)

Test: Henry solubility constant Hcp at 298.15 K (mol/(m3 Pa))
Conditions: reference: Fendinger and Glotfelty (1990)

SMILES | Henry solubility constant Hcp
Cc1cccc2ccccc12 [1-methylnaphthalene] | 0.016
Clc1ccccc1-c1ccccc1Cl [2,2'-dichlorobiphenyl] | 0.04
c1ccc2c(c1)Cc1ccccc1-2 [2,3-benzindene] | 0.16
Cc1ccc2ccccc2c1 [2-methylnaphthalene] | 0.031
Clc1ccc(-c2ccc(Cl)cc2)cc1 [4,4'-dichlorobiphenyl] | 0.1
c1cc2c3c(cccc3c1)CC2 [acenaphthene] | 0.16
C1=Cc2cccc3cccc1c23 [acenaphthylene] | 0.088
c1ccc2cc3ccccc3cc2c1 [anthracene] | 0.51
c1ccc(-c2ccccc2)cc1 [biphenyl] | 0.051
CCOP(=S)(OCC)Oc1nc(Cl)c(Cl)cc1Cl [chlorpyrifos] | 2.4
CCOC(=O)CC(SP(=S)(OC)OC)C(=O)OCC (stereo unspecified) [malathion] | 2000
COP(=S)(OC)Oc1ccc([N+](=O)[O-])cc1 [methylparathion] | 160
c1ccc2ccccc2c1 [naphthalene] | 0.013
CCOP(=S)(OCC)Oc1ccc([N+](=O)[O-])cc1 [parathion] | 120
CCC(CC)Nc1c([N+](=O)[O-])cc(C)c(C)c1[N+](=O)[O-] [penoxaline] | 12
c1ccc2c(c1)ccc1ccccc12 [phenanthrene] | 0.42
